Test results taken from patent US9265189B2, “Method for reducing damage by harmful organisms in corn cultivation” (SUMITOMO CHEMICAL COMPANY, LIMITED, priority 2012, dated 2016).

How the values were obtained:
Format in all cases: in vivo
[1] = system: Diabrotica virgifera virgifera and Agriotes lineatus; experiment: Field test, lodge rate, clothianidin in-furrow, herbicides plus cyprosulfamide on soil (Example 7); conditions: clothianidin 50 g/ha in-furrow spray 125 L/ha, thiuram-treated seed, 165 days after application; example in present tense
Excerpt: A chemical fertilizer (N:P:K=15:15:15) is applied to the soil surface of a cultivated land at 300 kg/ha, and the cultivated land is then plowed. 7 days after fertilization, for suppressing generation of weeds, the soil surface of the whole cultivated land is spray-treated with a mixed liquid containing thiencarbazone-methyl and isoxaflutole, each of which being a herbicide, and cyprosulfamide which is a safener at 150 L/ha so that the application amounts of thiencarbazone-methyl, isoxaflutole and cyprosulfamide are 9.2 g/ha, 23 g/ha and 15 g/ha, respectively. 21 days after fertilization, using a pneumatic seeder (disk furrow opener) equipped with a power sprayer, a cultivated land is ditched at intervals of 75 cm to a depth of 5 cm from the soil surface, and the furrow is seeded with corn (Zea Mays; hybrid variety). […] 165 days after application of the aqueous suspension of clothianidin, the number of plants of corn lodged due to damage by Diabrotica virgifera virgifera and Agriotes lineatus in the furrows of the treatment section and the non-treatment section, for which the number of plants of corn germinated is investigated, is investigated, a lodge rate is calculated in accordance with the following equation, and then an average lodge rate for the four investigation sections is determined.

Agriotes spp. = experiment: Field test, corn plants damaged by Agriotes spp. after in-furrow spray (Example 1); conditions: Example section 1: clothianidin 50 g/ha, in-furrow spray of Dantop 50WG aqueous suspension 100 L/ha, corn DK 440, 35 days after application; non-treatment section 43
Description: Using a pneumatic seeder (disk furrow opener, manufactured by Gaspardo) equipped with a power sprayer (trade name: WJR 2525, manufactured by HONDA), a cultivated land was ditched at intervals of 75 cm to a depth of 3 cm from the soil surface, and the furrow was seeded with corn (Zea Mays, trade name: DK 440; hybrid variety, manufactured by Monsanto) at intervals of 13 cm. A seeding density of corn was 100000 seeds/ha. Then, the furrow was spray-treated with an aqueous suspension of a clothianidin water dispersible granule (using a 50% dispersible granule, trade name: Dantop 50WG, manufactured by Philagro) at 100 L/ha so that the application amount of clothianidin was 50 g/ha, and then a soil on the side of the furrow was gathered together to close the furrow. This was defined as an example section 1. For comparison, a non-treatment section, which was seeded with corn without application of a clothianidin water dispersible granule, was provided. […] 35 days after application of the clothianidin water dispersible granule, the number of plants of corn damaged by Agriotes spp. in each of the example section 1 and the non-treatment section was investigated, a damage plant rate was calculated in accordance with the following equation, and then an average damage plants rate of the four investigation sections was determined. […]

[2] = system: Diabrotica virgifera virgifera and Agriotes lineatus; experiment: Field test, corn lodged due to damage by Diabrotica virgifera virgifera and Agriotes lineatus (Example 5); conditions: Example section 5: clothianidin 80 g/ha, in-furrow spray of Dantop 50WG 125 L/ha, corn DKC 5143 seed treated with Maxim XL, MaisTer pre-treatment, 155 days after application; non-treatment section 36
Excerpt: A chemical fertilizer (N:P:K=15:15:15) was applied to the soil surface of a cultivated land at 300 kg/ha, and the cultivated land was then plowed. In order to prevent generation of weeds, 28 days after fertilization, the whole cultivated land was spraying-treated with a mixed agent (using 610 g/kg water dispersible granule, trade name: […], manufactured by Bayer CropScience) of foramsulfuron and an iodosulfuron-methyl-sodium salt, each of which being a herbicide, and a safener, isoxadifen-ethyl, at 0.15 L/ha in terms of an application amount of the preparation. 3 days after application of the preparation, using a pneumatic seeder (disk furrow opener) equipped with a power sprayer, a cultivated land was ditched at intervals of 75 cm to a depth of 5 cm from the soil surface, and the furrow was seeded with corn (variety name: DKC 5143; hybrid variety, manufactured by Monsanto). […] 155 days after application of the clothianidin water dispersible granule, the number of plants of corn lodged due to damage by Diabrotica virgifera virgifera and Agriotes lineatus in the furrows of the example section 5 and the non-treatment section, for which the number of plants of corn germinated was investigated, was investigated, a lodge rate was calculated in accordance with the following equation, and then an average lodge rate for the four investigation sections was determined. […]

CN/C(=N\[N+](=O)[O-])NCc1cnc(Cl)s1 [clothianidin]
Lodge rate compared to non-treatment section [1]: low lodge rate as compared to the non-treatment section | Damage plant rate (%) (Agriotes spp.): 0% | Lodge rate (%) [2]: 0%
